Laboratory results as given in patent publication US9107964B2, “Radioactive fluorine-labeled compound” (NIHON MEDI-PHYSICS CO., LTD., priority 2011, dated 2015).
“Also recorded” adds a separate entry of the source.

Columns and labels:
[1] = system: hypoxic region of EMT6 tumor (pimonidazole-positive site); test: Localization of accumulation within tumor by autoradiography versus pimonidazole immunohistochemical staining; type: in vivo, mouse (Balb/c nu/nu); settings: autoradiography and immunohistochemical staining of the same tumor section
Description: In order to evaluate whether or not the compound related to the present invention could visualize a hypoxic region of a tumor, the following experiment was carried out using compounds 1 to 3 and [^18F]FMISO.
Localization of accumulation of each of the labeled compounds within a tumor was confirmed by autoradiography. After PET imaging of a tumor-bearing model mouse prepared by the method of […] was completed, it was sacrificed by blood-letting by cardiocentesis, immediately thereafter the tumor was sampled, and tissue sections (thickness: 10 μm) were prepared using a cryostat (model: CM3050, manufactured by Leica). […] After exposing an imaging plate to this tumor tissue section for 8 to 10 hours, an image was captured using a bioimaging analyzer (model: BAS-2500, manufactured by FUJIFILM). The image thus captured was subjected to image analysis using image analysis software.
Separately, as a method for confirming a hypoxic region within a tumor, the same section after decay of radioactivity was subjected to immunohistochemical staining using pimonidazole that is a hypoxic marker, by the following procedure. […]

[2] = system: hypoxic region of EMT6 tumor (pimonidazole-positive area); test: Correlation between autoradiographic signal intensity (PSL value) and pimonidazole-positive area (Example 13); type: in vivo, mouse (Balb/c nu/nu); settings: tumor tissue sections after PET imaging
Description: In order to evaluate whether or not the compound related to the present invention can quantitatively visualize a hypoxic region of a tumor, the following experiment was carried out using compounds 1 to 3 and [^18F]FMISO.
Using a microscope system (model: BZ-9000, Keyence Corporation) a high magnification image of a pimonidazole-positive site was acquired using the entire image of a pathology image obtained by immunohistochemical staining in the Example 12 and a 10× objective lens. The high magnification image was formed with respect to a randomly selected image region. At the same time the image acquisition site was recorded as a navigation image by use of the navigation function of the microscope system. The acquired high magnification image was subjected to image processing, and a pimonidazole-positive area present in the high magnification image was determined.
The autoradiographic image and the stained image of each labeled compound used were those acquired in the Example 12. The resolution of the navigation image was made to match the resolution of the autoradiographic image, and the geometrical positions of two images were aligned using image analysis software.
In the autoradiographic image, an ROI was set for the site that coincided with the high magnification image acquisition site, and the PSL value (Photo-Stimulated Luminescence value) of the ROI was determined. Furthermore, an ROI was set for a site of the same image that contained no sample, and the PSL value thereof was defined as the background. The PSL value of the background was subtracted from the PSL value of the high magnification image acquisition site to obtain the net PSL value. The hypoxic marker pimonidazole-positive area was plotted on the abscissa and the PSL value in the autoradiographic image on the ordinate, and the correlation factor was determined. This series of operations was carried out for each of the labeled compounds.

[3] = system: EMT6 tumor-bearing model mice; test: Biodistribution in tumor and organs of tumor-bearing mouse (Example 14); type: in vivo, mouse (Balb/c nu/nu); settings: for Blood / Gall bladder / Heart / Kidney / Large intestine / Liver / Lung / Muscle / Small intestine / Stomach / T/B (tumor/blood ratio) / T/M (tumor/muscle ratio) / Tumor / Urine: mean
Description: The biodistribution of compounds 1 to 3 and [^18F]FMISO in a tumor and each of the organs of a tumor-bearing mouse was measured.
Tumor-bearing model mice used in this experiment were the same as those prepared in Example 10, and 3 or 4 cases that had attained a tumor volume of 200 to 400 mm^3 were selected from each group. The tumor-bearing model mouse was placed under isoflurane anesthesia, pimonidazole that is a hypoxic marker, was administered via a tail vein, and at 10 minutes thereafter, the respective labeled compound was administered. The tumor-bearing model mouse was sacrificed at 60 minutes and 120 minutes after administration. All of the tumor-bearing model mice were sacrificed by blood-letting from the abdominal aorta or by cardiocentesis, and dissection was carried out immediately thereafter. Other than the tumor, the blood, heart, lung, stomach, liver, gallbladder, kidney, small intestine and large intestine, muscle, and urine were sampled, and the other tissues were defined as the remaining whole body. After the weight of each tissue sampled was measured, the amount of radioactivity of the tissue was measured using a gamma counter, and the biodistribution of each of the labeled compounds was compared by converting it into % ID/g (% injection dose/g organ) of each tissue.
In order to examine a hypoxic state within the tumor, immunohistochemical staining of the sample tumor was carried out so as to ascertain whether or not the interior of the tumor was hypoxic. The sampled tumor was fixed using a 20% formalin buffer, and a paraffin block was prepared using an automatic paraffin-embedding apparatus (model: VIP-5-Jr-J0, Sakura Finetek). A slice (thickness: 3 μm) was prepared by means of a microtome (model: Tissue-Tek Feather Trustome, Sakura Finetek). Immunohistochemical staining was carried out by the same method as in Example 12.

[4] = system: mouse-derived breast cancer cell line (EMT6) tumor-bearing model mice; test: Measurement of SUV within tumor and calculation of tumor/normal tissue ratio (Example 11); settings: 60 minutes after administration
Description: The tumor-bearing model mouse thus prepared was placed under isoflurane anesthesia, and about 20 MBq of these sample solutions was administered via a tail vein. static imaging was carried out using a PET system for animals (model: eXplore Vista, manufactured by GE) at 60 minutes after administration. […] Data thus collected were reconstituted by the OSEM method to thus form an image, and a coronal tomographic image and an axial tomographic image were formed using image analysis software.
The maximum value for SUV within the tumor was measured using the axial tomographic images acquired in the Example 10. For all slice planes of an axial tomographic image where the tumor was visualized, a region of interest (hereinafter, called an ROI) was set for the entire tumor and measured. The axial tomographic image was formed from 61 slice planes, and the SUV that was the highest among the measured slice planes was defined as a maximum value for SUV 60 minutes after administration (SUV maximum value in tumor). […] The average value for signal intensity within the ROI was determined, and the average value for values measured for the slice planes was defined as the average value for SUV in normal tissue. The tumor/normal tissue ratio was calculated using the following equation (1) and used as a […] indicator with respect to contrast between the tumor and normal tissue.

[5] = system: mouse-derived breast cancer cell line (EMT6) tumor-bearing model mice; test: PET imaging of tumor-bearing model mice (incorporation into tumor cells, Example 10); type: in vivo, mouse (Balb/c nu/nu); settings: 60 minutes after administration
Description: Accumulation of compound 1, compound 2, and compound 3 in tumor cells in vivo was studied as follows using a mouse-derived breast cancer cell line (EMT6).
Preparation of tumor-bearing model mice: the animals used were six-week-old female Balb/c nu/nu mice (obtained from Japan SLC). Using these animals, a Matrigel suspension (cell count 2.5×10^6 cells/0.05 mL) of EMT6, which is a mouse-derived breast cancer cell line (obtained from ATCC), was subcutaneously implanted in a site from the right rib to the right shoulder. It was confirmed on the third day after implantation that the tumor cells were fixed, and the tumor volume attained 200 to 400 mm^3 9 to 11 days after implantation.

[6] = 60 minutes after administration
[7] = 120 minutes after administration

| Structure (SMILES) | Correlation coefficient (pimonidazole-positive area vs PSL value in autoradiographic image) [2] | Blood [3, 6] | Gall bladder [3, 6] | Heart [3, 6] | Kidney [3, 6] | Large intestine [3, 6] | Liver [3, 6] | Lung [3, 6] | Muscle [3, 6] | Small intestine [3, 6] | Stomach [3, 6] | T/B (tumor/blood ratio) [3, 6] | T/M (tumor/muscle ratio) [3, 6] | Tumor [3, 6] | Urine [3, 6] | Blood [3, 7] | Gall bladder [3, 7] | Heart [3, 7] | Kidney [3, 7] | Large intestine [3, 7] | also measured |
| --- | --- | --- | --- | --- | --- | --- | --- | --- | --- | --- | --- | --- | --- | --- | --- | --- | --- | --- | --- | --- | --- |
| O=[N+]([O-])c1nccn1CC(O)C[18F] (stereo not drawn) [[^18F]FMISO, [^18F]fluoromisonidazole, reference compound] | 0.55 | 4.45 % ID/g | 12.92 % ID/g | 5.12 % ID/g | 8.52 % ID/g | 13.76 % ID/g | 5.84 % ID/g | 4.41 % ID/g | 3.80 % ID/g | 5.76 % ID/g | 4.17 % ID/g | 1.06 | 1.24 | 4.71 % ID/g | 34.98 % ID | 2.26 % ID/g | 43.43 % ID/g | 3.33 % ID/g | 3.89 % ID/g | 21.16 % ID/g | Coincidence of accumulation site with localization of pimonidazole (hypoxic marker) [1]: did not visually coincide; Liver [3, 7]: 3.85 % ID/g; Lung [3, 7]: 2.69 % ID/g; Muscle [3, 7]: 2.29 % ID/g; Small intestine [3, 7]: 4.63 % ID/g; Stomach [3, 7]: 1.85 % ID/g; T/B (tumor/blood ratio) [3, 7]: 1.91; T/M (tumor/muscle ratio) [3, 7]: 1.88; Tumor [3, 7]: 4.28 % ID/g; Urine [3, 7]: 41.45 % ID; SUV maximum value (in tumor) ([4]; about 20 MBq via tail vein, axial PET image, ROI entire tumor): 0.98; Tumor/normal tissue ratio ([4]; SUV maximum in tumor versus average SUV of left body side (lung and muscle)): 2.03 |
| O=[N+]([O-])c1nccn1CCC(CO)(CO)C[18F] [Compound 3, 1-(3,3-Dihydroxymethyl-4-[^18F]fluorobutyl)-2-nitroimidazole] | 0.61 | 2.81 % ID/g | 16.71 % ID/g | 3.46 % ID/g | 9.95 % ID/g | 5.40 % ID/g | 4.46 % ID/g | 2.92 % ID/g | 2.66 % ID/g | 4.68 % ID/g | 1.99 % ID/g | 0.86 | 0.87 | 2.05 % ID/g | 45.80 % ID | 1.14 % ID/g | 15.45 % ID/g | 1.82 % ID/g | 9.20 % ID/g | 6.89 % ID/g | Sites of accumulation on coronal tomographic image [5]: intense accumulation of compound 2 and compound 3 was found in the bladder and accumulation thereof was found in the intestinal tract; also recorded: accumulation of compound 3 in the gallbladder; Tumor-specific accumulation on axial tomographic image [5]: tumor-specific accumulation; Physiological accumulation in the liver compared with [^18F]FMISO ([5]; coronal tomographic PET image): low physiological accumulation in the liver; Excretion route ([5]; from coronal tomographic PET image): excreted via the kidney and urinary tract system and the hepatobiliary system; Liver [3, 7]: 2.13 % ID/g; Lung [3, 7]: 1.38 % ID/g; Muscle [3, 7]: 1.44 % ID/g; Small intestine [3, 7]: 3.66 % ID/g; Stomach [3, 7]: 1.26 % ID/g; T/B (tumor/blood ratio) [3, 7]: 2.11; T/M (tumor/muscle ratio) [3, 7]: 1.62; Tumor [3, 7]: 1.93 % ID/g; Urine [3, 7]: 68.78 % ID; Blood clearance and urinary excretion ([3]; compared with [^18F]FMISO, 60 and 120 minutes after administration): rapid blood clearance and urinary excretion compared with [^18F]FMISO |
